These results are taken from ChEMBL document CHEMBL1201862, “PubChem BioAssay data set” (2004).

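Five compound concentrations were applied to cells in 96-well plates for 48 hours; endpoints were derived by simple linear interpolation of the resulting dose-response curve. Abbreviation: GI50, concentration required for 50% inhibition of growth.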 Calls of active or inactive are those of the source. No stated cut-off is given here; in the data, active = GI50 up to about 1.1 µM and inactive = higher.

Some test systems named below: BT-549; SN12C; IGROV-1; MDA-N; NCI-H522; OVCAR-3; OVCAR-4; Hs-578T; KM-20L2; TK-10; A498; SF-295; 786-0; MDA-MB-435; RXF 393; KM12; SK-MEL-2; K562; MOLT-4; CAKI-1.
What all share (assay): growth of human tumour cells (NCI), 48 h

Regarding `CO[C@@]12[C@H](COC(N)=O)C3=C(C(=O)C(C)=C(N)C3=O)N1C[C@H]1[C@@H]2N1C` (stereo not given in full) [PORFIROMYCIN], the GI50 is 12.2 µM (inactive) in the assay on BT-549; 0.782 µM (active) in the assay with SN12C; 5.62 µM (inactive) with IGROV-1; 12.5 µM (inactive) in the assay on MDA-N; 4.59 µM (inactive) with NCI-H522; 6.76 µM (inactive) in the assay with OVCAR-3. The GI50 was 9.68 µM (inactive) in the assay on OVCAR-4; 16.6 µM (inactive) in the assay on Hs-578T; 7.98 µM (inactive) in the assay on KM-20L2; 16.3 µM (inactive) in the assay on TK-10; 6.31 µM (inactive) with A498; 0.398 µM (active) in the assay with SF-295. Also, the GI50 was 8.57 µM (inactive) with 786-0; 12.3 µM (inactive) in the assay on MDA-MB-435; 6.31 µM (inactive) in the assay on RXF 393; 6.97 µM (inactive) in the assay on KM12; 13.5 µM (inactive) in the assay with SK-MEL-2; 7.5 µM (inactive) in the assay on K562. The GI50 in the assay with MOLT-4 is 0.543 µM (active); in the assay with CAKI-1, 0.948 µM (active).
With `CC(C)c1cc(OCC(O)CO)cc(C(C)C)c1` (stereo not given), the GI50 with SN12C, in the assay with IGROV-1, in the assay with NCI-H522, in the assay with OVCAR-3, with OVCAR-4 and in the assay with KM-20L2 was > 100 µM (inactive) each time. Also, the GI50 in the assay with TK-10, with A498, in the assay with SF-295, in the assay on 786-0, with RXF 393 and in the assay on KM12 was > 100 µM (inactive) in each case. Moreover, the GI50 in the assay on SK-MEL-2, in the assay on K562, in the assay on MOLT-4 and in the assay with CAKI-1 was > 100 µM (inactive) each time.
In the case of `COc1ccc(O)c(C#N)c1C#N`, the GI50 with SN12C, with IGROV-1, in the assay on NCI-H522, in the assay with OVCAR-3, in the assay on OVCAR-4 and in the assay on KM-20L2 was > 100 µM (inactive) in each case. The GI50 in the assay on TK-10, in the assay with A498, in the assay on SF-295, in the assay with 786-0, in the assay with RXF 393 and in the assay with KM12 was > 100 µM (inactive) in each case. The GI50 with SK-MEL-2, in the assay on K562, in the assay on MOLT-4 and in the assay on CAKI-1 was > 100 µM (inactive) in each case.
Consider `CCOC(=N)CC(=O)Nc1ccccc1CC`, for which the GI50 in the assay on SN12C, with IGROV-1, in the assay on NCI-H522, in the assay on OVCAR-3, in the assay with OVCAR-4 and in the assay with KM-20L2 was > 100 µM (inactive) each time. Further, the GI50 in the assay with TK-10, in the assay with A498, with SF-295, with 786-0, in the assay on RXF 393 and with KM12 was > 100 µM (inactive) throughout. Further, the GI50 in the assay with SK-MEL-2, in the assay with K562, with MOLT-4 and with CAKI-1 was > 100 µM (inactive) each time.
As for `Cc1ccc(NC(=O)CCC(=O)C(C#N)c2ccc(Cl)cc2)cc1C` (stereo not given), the GI50 in the assay with SN12C, with IGROV-1, in the assay on NCI-H522, in the assay on OVCAR-3, in the assay with OVCAR-4 and with KM-20L2 was > 100 µM (inactive) each time. The GI50 in the assay on TK-10, in the assay on A498, in the assay on SF-295, in the assay with 786-0, with RXF 393 and in the assay with KM12 was > 100 µM (inactive) throughout. Moreover, the GI50 with SK-MEL-2, with K562, in the assay on MOLT-4 and in the assay with CAKI-1 was > 100 µM (inactive) in each case.
As for `COc1cc(C[C@H]2c3cc(OC)c(OC)cc3CCN2C)c(Oc2cc3c(cc2OC)-c2c(OC)c(OC)cc4c2[C@H](C3)N(C)CC4)cc1OC` [THALICARPINE], the GI50 was 6.52 µM (inactive) with BT-549; 12.4 µM (inactive) in the assay on SN12C; 10.8 µM (inactive) with IGROV-1; 4.13 µM (inactive) in the assay on MDA-N; 6.89 µM (inactive) with NCI-H522; 10.5 µM (inactive) in the assay on OVCAR-3. Moreover, the GI50 with OVCAR-4 is 8.3 µM (inactive); with Hs-578T it was 2.99 µM (inactive); in the assay on KM-20L2, 4.53 µM (inactive); in the assay with TK-10, 3.61 µM (inactive); in the assay on A498 it was 7.06 µM (inactive); in the assay with SF-295, 10.1 µM (inactive). In addition, the GI50 was 3.52 µM (inactive) with 786-0; 5.16 µM (inactive) with MDA-MB-435; 3.05 µM (inactive) in the assay on RXF 393; 5.18 µM (inactive) in the assay with KM12; 10 µM (inactive) in the assay on SK-MEL-2; 4.88 µM (inactive) with K562. Also, the GI50 in the assay with MOLT-4 was 6.25 µM (inactive); with CAKI-1 it was 6.22 µM (inactive).
Consider `COC(=O)c1c[nH]cc1CCc1c[nH]cc1C(=O)OC`, for which the GI50 with SN12C is > 100 µM (inactive); in the assay on IGROV-1, > 100 µM (inactive); in the assay with NCI-H522 it was 58.1 µM (inactive); in the assay with OVCAR-3 it was > 100 µM (inactive); with OVCAR-4, > 100 µM (inactive); with KM-20L2, > 100 µM (inactive). Also, the GI50 in the assay with TK-10 was > 100 µM (inactive); in the assay with A498, 48.2 µM (inactive); in the assay on SF-295 it was > 100 µM (inactive); in the assay with 786-0 it was > 100 µM (inactive); with RXF 393 it was 27.2 µM (inactive); in the assay with KM12, > 100 µM (inactive). The GI50 with SK-MEL-2, in the assay on K562, in the assay on MOLT-4 and with CAKI-1 was > 100 µM (inactive) each time.
Turning to `O=C(CCn1[nH]c(=O)c(Cl)c(Cl)c1=O)NNC(=O)C[n+]1ccccc1`, the GI50 in the assay on SN12C, in the assay with IGROV-1, in the assay on NCI-H522, in the assay on OVCAR-3, in the assay with OVCAR-4 and in the assay with KM-20L2 was > 100 µM (inactive) throughout. In addition, the GI50 in the assay with TK-10, in the assay with A498, in the assay with SF-295, in the assay with 786-0, with RXF 393 and in the assay on KM12 was > 100 µM (inactive) throughout. Moreover, the GI50 in the assay with SK-MEL-2, with K562, with MOLT-4 and in the assay with CAKI-1 was > 100 µM (inactive) in each case.
As for `COc1ccc2nc3c(c(NCCCN(C)C)c2c1)CCCC3`, the GI50 with SN12C is 17.2 µM (inactive); in the assay with IGROV-1 it was 19.3 µM (inactive); in the assay with NCI-H522, 14.9 µM (inactive); in the assay on OVCAR-3, 19.4 µM (inactive); in the assay with OVCAR-4 it was 4.43 µM (inactive); with KM-20L2, 6.7 µM (inactive). For the same compound, the GI50 with TK-10 was 26.1 µM (inactive); with A498, 20.3 µM (inactive); with SF-295 it was 14.6 µM (inactive); in the assay with 786-0, 15.4 µM (inactive); with RXF 393, 14.8 µM (inactive); in the assay on KM12, 12.5 µM (inactive). In addition, the GI50 with SK-MEL-2 was 17.3 µM (inactive); in the assay with K562, 2.25 µM (inactive); with MOLT-4 it was 3.4 µM (inactive); with CAKI-1, 11.9 µM (inactive).
As to `CCOC(=O)Cc1nc2ccccc2s1`, the GI50 in the assay on SN12C was 16.8 µM (inactive); with IGROV-1 it was 39 µM (inactive); with NCI-H522 it was 19.6 µM (inactive); in the assay with OVCAR-3 it was > 10 µM (inactive); with OVCAR-4 it was > 10 µM (inactive); in the assay with KM-20L2 it was 27.6 µM (inactive). Moreover, the GI50 in the assay on TK-10 was 27.5 µM (inactive); in the assay on A498, 18.5 µM (inactive); in the assay with SF-295, 17.7 µM (inactive); with 786-0, 18.9 µM (inactive); in the assay with RXF 393 it was 20.9 µM (inactive); in the assay with KM12, > 10 µM (inactive). The GI50 in the assay with SK-MEL-2 is 18.2 µM (inactive); with K562, 25.4 µM (inactive); in the assay with MOLT-4 it was 25.6 µM (inactive); in the assay with CAKI-1, 19.6 µM (inactive).
On to `CCCCCCCCCCCCCCCC(=O)OCCOCCOCCOCCOCCOC(=O)CCCCCCCCCCCCCCC`, for which the GI50 in the assay with SN12C, in the assay on IGROV-1, with NCI-H522, with OVCAR-3, in the assay with OVCAR-4 and in the assay on KM-20L2 was > 100 µM (inactive) in each case. For the same compound, the GI50 in the assay with TK-10, in the assay with A498, in the assay with SF-295, in the assay on 786-0, in the assay on RXF 393 and in the assay on KM12 was > 100 µM (inactive) throughout. Further, the GI50 in the assay on SK-MEL-2, with K562, in the assay with MOLT-4 and in the assay on CAKI-1 was > 100 µM (inactive) in each case.
On to `COC(=O)c1c(-c2cc(OC)c(OC)c(OC)c2)oc2ccccc2c1=O`, for which the GI50 with SN12C is > 100 µM (inactive); in the assay on IGROV-1, > 100 µM (inactive); in the assay with NCI-H522, 94 µM (inactive); in the assay with OVCAR-3, 75.9 µM (inactive); with OVCAR-4, 68.4 µM (inactive); with KM-20L2 it was > 100 µM (inactive). Also, the GI50 with TK-10 is 42.6 µM (inactive); with A498, > 100 µM (inactive); with SF-295 it was > 100 µM (inactive); in the assay on 786-0, > 100 µM (inactive); in the assay on RXF 393 it was 53.6 µM (inactive); with KM12, > 100 µM (inactive). The GI50 with SK-MEL-2 was > 100 µM (inactive); in the assay on K562 it was 42.8 µM (inactive); in the assay with MOLT-4, 70.1 µM (inactive); with CAKI-1, 75.3 µM (inactive).
